The values that follow come from ChEMBL document CHEMBL1135855, “4-amidinobenzylamine-based inhibitors of urokinase” (Bioorg Med Chem Lett, 2002).

Where only a bound is given, the exact number is not on record here.

For one test, the target named is Serine protease 1 (Homo sapiens, UniProt P07477). Nature of the test: In vitro inhibition of trypsin.
Another test concerns the target Coagulation factor X (Homo sapiens, UniProt P00742). Briefly: In vitro inhibition of Coagulation factor Xa.
The target in a further test is Prothrombin (Homo sapiens, UniProt P00734). Briefly: In vitro inhibition of thrombin.
The next test concerns the target Plasminogen (Homo sapiens, UniProt P00747). Briefly: In vitro inhibition of Plasmin.
Test [1] has as its target T1, Urokinase-type plasminogen activator (Homo sapiens, UniProt P00749). Nature of the test: In vitro inhibition of plasminogen activator urokinase.
Test [2] has as its target T1, Urokinase-type plasminogen activator.

Plasminogen, sequence (P00747 97-580 limits assumed): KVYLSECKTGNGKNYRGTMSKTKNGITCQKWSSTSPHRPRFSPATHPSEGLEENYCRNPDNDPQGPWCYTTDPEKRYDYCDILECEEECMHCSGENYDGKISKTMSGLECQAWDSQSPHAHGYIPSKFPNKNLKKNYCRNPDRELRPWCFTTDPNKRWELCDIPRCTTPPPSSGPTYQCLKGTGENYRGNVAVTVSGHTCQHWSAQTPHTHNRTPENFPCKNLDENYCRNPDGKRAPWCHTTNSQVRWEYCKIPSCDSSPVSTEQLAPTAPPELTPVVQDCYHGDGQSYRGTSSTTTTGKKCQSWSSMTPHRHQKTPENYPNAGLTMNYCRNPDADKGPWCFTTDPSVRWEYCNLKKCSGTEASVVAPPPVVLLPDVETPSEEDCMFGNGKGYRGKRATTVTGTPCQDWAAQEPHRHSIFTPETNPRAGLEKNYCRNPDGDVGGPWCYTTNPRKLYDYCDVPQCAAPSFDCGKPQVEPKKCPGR
Plasminogen, sequence (P00747 581-810 limits assumed): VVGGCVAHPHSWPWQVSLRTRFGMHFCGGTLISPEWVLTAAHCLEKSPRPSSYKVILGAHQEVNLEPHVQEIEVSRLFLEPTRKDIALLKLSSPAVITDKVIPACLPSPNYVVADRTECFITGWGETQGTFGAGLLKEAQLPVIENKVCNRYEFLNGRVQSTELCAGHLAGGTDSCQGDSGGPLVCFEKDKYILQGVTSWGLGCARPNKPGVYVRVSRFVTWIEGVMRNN
Coagulation factor X, sequence (P00742 41-179 limits assumed): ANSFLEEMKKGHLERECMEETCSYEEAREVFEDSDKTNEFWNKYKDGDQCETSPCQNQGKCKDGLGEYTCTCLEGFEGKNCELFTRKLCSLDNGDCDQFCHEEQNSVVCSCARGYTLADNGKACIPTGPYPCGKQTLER
Coagulation factor X, sequence (P00742 235-488 limits assumed): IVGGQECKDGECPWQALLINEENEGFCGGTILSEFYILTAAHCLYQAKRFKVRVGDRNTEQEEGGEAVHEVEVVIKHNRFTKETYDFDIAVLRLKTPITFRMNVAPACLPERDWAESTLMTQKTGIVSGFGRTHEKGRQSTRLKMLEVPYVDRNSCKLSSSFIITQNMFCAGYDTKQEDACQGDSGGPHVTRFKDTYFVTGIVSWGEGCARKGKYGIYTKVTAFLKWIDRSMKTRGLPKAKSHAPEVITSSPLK
Serine protease 1, sequence (P07477 whole entry): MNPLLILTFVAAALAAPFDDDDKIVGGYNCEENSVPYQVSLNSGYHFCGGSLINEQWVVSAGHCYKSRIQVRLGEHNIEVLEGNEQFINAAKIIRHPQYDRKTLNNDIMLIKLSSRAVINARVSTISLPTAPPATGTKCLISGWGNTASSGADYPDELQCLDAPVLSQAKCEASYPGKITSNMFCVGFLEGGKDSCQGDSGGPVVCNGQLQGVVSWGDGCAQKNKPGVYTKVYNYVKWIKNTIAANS

As for `N=C(N)c1ccc(CNC(=O)CNS(=O)(=O)c2ccc3ccccc3c2)cc1`, the Ki (in general, a measure of affinity in units of concentration, obtained from inhibition or displacement) on Serine protease 1 was determined as 0.65 µM; on Coagulation factor X, 10.6 µM; at Prothrombin it was 16 µM; at Plasminogen, 43 µM.
For `CC(C)c1cc(S(=O)(=O)N[C@H](CO)C(=O)NCC(=O)NCc2ccc(C(=N)N)cc2)cc(C(C)C)c1C(C)C`, the Ki on Serine protease 1 was found to be 3.4 µM; on Coagulation factor X it was 100 µM; in test [1] it was 1.5 µM; on Prothrombin, 15 µM; on Plasminogen, 75 µM.
Consider `N/C(=N\O)c1ccc(CNC(=O)CNC(=O)[C@@H](CO)NS(=O)(=O)Cc2ccccc2)cc1`, for which the Ki at Serine protease 1, on Coagulation factor X, at Prothrombin and on Plasminogen was over 1000 µM each time.
`C[C@H](NC(=O)[C@@H](CO)NS(=O)(=O)Cc1ccccc1)C(=O)NCc1ccc(C(=N)N)cc1`: the Ki was determined as 0.0033 µM on Serine protease 1, 2.1 µM at Coagulation factor X, 0.11 µM at Prothrombin and 0.54 µM at Plasminogen.
Taken in the same sequence, the figures for `N=C(N)c1ccc(CNC(=O)CNC(=O)[C@@H](CO)NS(=O)(=O)CC2CCCCC2)cc1` were 0.11 µM, 2 µM, 10 µM and 17 µM.
`N=C(N)c1ccc(CNC(=O)CNC(=O)[C@@H](CO)NS(=O)(=O)Cc2ccccc2)cc1`: the Ki at Serine protease 1 turned out to be 0.15 µM; at Coagulation factor X, 3 µM; on Prothrombin it was 13 µM.
With `N=C(N)c1ccc(CNC(=O)[C@H]2CCCN2C(=O)[C@@H](CO)NS(=O)(=O)Cc2ccccc2)cc1`, the inhibition constant (Ki) at Serine protease 1 worked out at 0.0032 µM; on Coagulation factor X, 2 µM; on Prothrombin it was 0.012 µM; on Plasminogen, 0.15 µM.
In the case of `COC(=O)OC[C@@H](NS(=O)(=O)Cc1ccccc1)C(=O)NCC(=O)NCc1ccc(C(=N)N)cc1`, the Ki at Serine protease 1 came to 0.064 µM; on Coagulation factor X, 0.34 µM; on Prothrombin, 3 µM; on Plasminogen it was 10.9 µM.
The compound `C[C@H](NC(=O)[C@@H](CO)NS(=O)(=O)CCc1ccccc1)C(=O)N[C@H]1CCCN(C(=N)N)C1O` (stereo partly drawn) displayed a Ki in test [2] of 3.1 µM. This lies in the single-digit micromolar range.
Regarding `CC(C)(C)OC(=O)NC(CCC(=O)O)C(=O)NCC(=O)NCc1ccc(C(=N)N)cc1` (stereo not drawn), the Ki on Serine protease 1 is 2.8 µM; at Coagulation factor X, over 1000 µM; in test [1], 82 µM; on Prothrombin it was over 1000 µM; on Plasminogen it was over 1000 µM.
`N=C(N)c1ccc(CNC(=O)CNC(=O)[C@H](N)CO)cc1`: the Ki at Serine protease 1 is 6.9 µM; at Coagulation factor X it was over 1000 µM; at Prothrombin, 200 µM; at Plasminogen, over 1000 µM.
Turning to `N=C(N)c1ccc(CNC(=O)CNC(=O)[C@@H](N)CCC(=O)O)cc1`, the Ki on Serine protease 1 was 5 µM; on Coagulation factor X, over 1000 µM; in test [1] it was 22 µM; on Prothrombin, over 1000 µM; on Plasminogen, over 1000 µM.
Turning to `N=C(N)c1ccc(CNC(=O)CNC(=O)[C@@H](N)CO)cc1`, the Ki at Serine protease 1 is 7 µM; on Coagulation factor X, over 1000 µM; on Prothrombin it was over 1000 µM; at Plasminogen, over 1000 µM.
In the case of `CC(C)COC(=O)OC[C@@H](NS(=O)(=O)Cc1ccccc1)C(=O)NCC(=O)NCc1ccc(C(=N)N)cc1`, the Ki amounted to 0.12 µM at Serine protease 1, 4 µM on Prothrombin and 2.4 µM on Plasminogen.
For `N=C(N)c1ccc(CNC(=O)CNC(=O)[C@@H](CO)NS(=O)(=O)c2ccc3ccccc3c2)cc1`, the Ki on Serine protease 1 was 1.8 µM; at Coagulation factor X, 28 µM; in test [1], 1.2 µM; on Prothrombin, 11 µM; at Plasminogen, 32 µM.
With `CC(=O)N[C@H](CO)C(=O)NCC(=O)NCc1ccc(C(=N)N)cc1`, the Ki is 14 µM on Serine protease 1, over 1000 µM at Coagulation factor X, over 1000 µM on Prothrombin and over 1000 µM on Plasminogen.
For `CC(C)(C)OC(=O)N[C@@H](CO)C(=O)NCC(=O)NCc1ccc(C(=N)N)cc1`, the Ki at Serine protease 1 came out at 3.4 µM; on Coagulation factor X it was 110 µM; on Prothrombin it was 69 µM; on Plasminogen, 210 µM.
For the compound `N=C(N)c1ccc(CNC(=O)CNC(=O)[C@@H](CO)NS(=O)(=O)/C=C/c2ccccc2)cc1`, the Ki on Serine protease 1 came out at 1.7 µM; at Coagulation factor X, 15 µM; in test [1], 2.2 µM; at Prothrombin, 15 µM; at Plasminogen, 140 µM.
`N=C(N)c1ccc(CNC(=O)CNC(=O)[C@@H](CO)NS(=O)(=O)CCc2ccccc2)cc1`: the Ki on Serine protease 1 is 0.9 µM; at Coagulation factor X, 28 µM; in test [1], 0.49 µM; on Prothrombin, 33 µM; at Plasminogen, 59 µM.
For `N=C(N)c1ccc(CNC(=O)CNC(=O)[C@@H](CO)NC(=O)OCc2ccccc2)cc1`, in that order: 4.3 µM, 140 µM, 4 µM, 230 µM and 160 µM.
For the compound `CC(C)COC(=O)OC[C@@H](NS(=O)(=O)Cc1ccccc1)C(=O)N[C@@H](C)C(=O)NCc1ccc(C(=N)N)cc1`, the Ki at Serine protease 1 is 0.0048 µM; on Coagulation factor X, 0.41 µM; in test [1], 0.043 µM; on Prothrombin it was 0.05 µM; at Plasminogen, 0.15 µM.
On to `CC(C)(C)OC(=O)N[C@H](CO)C(=O)NCC(=O)NCc1ccc(C(=N)N)cc1`, for which the Ki at Serine protease 1 is 4.5 µM; on Coagulation factor X, 140 µM; in test [1] it was 9 µM; on Prothrombin, 170 µM; on Plasminogen, over 1000 µM.
Take `CC(NS(=O)(=O)c1ccc2ccccc2c1)C(=O)NCc1ccc(C(=N)N)cc1` (single isomer, unassigned; (-)): the Ki in test [1] worked out at 9.6 µM. This counts as single-digit micromolar.
